Measured values: patent publication USRE42890E1, “Furazanobenzimidazoles” (Basilea Pharmaceutica AG, priority 2003, dated 2011)

How the values were obtained:
MRC5 = assay: MTS proliferation assay, MRC5; format: cell-based; settings: MRC5, 72 h incubation; read-out: MTS proliferation assay IC 50 MRC5
Protocol: (§1) Cell lines are cultured in RPMI-1640 tissue culture medium containing either 5% or 10% fetal calf serum, 0.05 mM 2-mercaptoethanol, 2 mM glutamine and penicillin/streptomycin 50 μg/ml (complete medium) (Sigma, Buchs, Switzerland). General growth conditions are 37° C. and 7.5% CO2.
(§2) The assay is performed in 96 well tissue culture plates. The cells (range: 1.5*10^3-10^4) are seeded out in 80 μl complete medium 24 h prior to compound treatment. The test compounds are added in 20 μl complete medium containing max 5% DMSO. The final compound concentrations in the assays are 10 μM, 3 μM, 1 μM and 0.3 μM, respectively. The assay plates are incubated for 72 h at culture conditions. The MTS reagent is prepared according to the manufacturer's protocol (Promega G1111). 20 μl MTS reagent are added to each well, the assay plates are quickly spun and incubated for another 3 h at culture conditions. Subsequently, the plates are shortly shaked and absorption measured with a microplate-reader at 492 nm.

[1] = tested on: adherent cells or suspension cells; assay: Hoechst 33342 nuclear staining (fraction of apoptotic nuclei); format: cell-based; set-up: key: 0 relating to no activity; 1 relating to weak activity comprising less than 70% of the cells; score 2 relating to strong activity comprising more than 70% of the cells
Protocol: as §1
This assay is performed in 96 well tissue culture plates. Appropriate number of cells (adherent cells: 3-5*10^3, suspension cells: 8-10*10^3) are being seeded out in 80 μl complete medium. Adherent cells are incubated for 24 h for proper spreading out before addition of test compounds while suspension cells are immediately treated with test compounds after seeding out. The test compounds are added in 20 μl complete medium containing max 5% DMSO. […] After 24 h or 48 h incubation at culture conditions, 10 μl medium containing Hoechst 33342 dye (Sigma B-2261) at 2-5 μg/ml are added to each well. The assay plates are then further incubated for 30 minutes and subsequently analyzed with a standard inverted fluorescence microscope.
The readout allows the determination of the fraction of apoptotic nuclei as well as other morphological criteria specific for apoptosis as a function of the treatment. The following scores are used: 0 relating to no activity, 1 relating to weak activity comprising less than 70% of the cells and score 2 relating to strong activity comprising more than 70% of the cells.

HeLa = assay: MTS proliferation assay, HeLa; format: cell-based, human; settings: 72 h incubation, read-out: MTS proliferation assay IC 50 HeLa
Protocol: as §1
(§3) The following human cell lines (either EGFP transfected or not) are being used: HeLa (ATCC: CCL-2), KB (ATCC: CCL-17), MCF7 (ATCC: HTB-22), SK-BR-3 (ATCC: HTB-30), SK-Mel 1 (ATCC: HTB-67), SK-Mel 28 (ATCC: HTB-72), PC-3 (ATCC: CRL-1435), SW 480 (ATCC: CCL-228), NCl-H460 (ATCC: HTB-177), NCl-H1792 (ATCC: CRL-5895), HT1080 (ATCC: CCL-21), Jurkat (ATCC: TIB-152), Ramos (ATCC: CRL-1596), Raji (ATCC: CCL-86), H9 (ATCC: HTB-176), Hut78 (ATCC: TIB-161), K562 (ATCC: CCL 243), HL-60 (ATCC: CCL 240), U-87MG (ATCC: HTB-14), HepG2 (ATCC: HB-8065), U-2 OS (ATCC: HTB-96), Saos-2 (ATCC: HTB-85), U937 (ATCC: CRL 1593), Hs 578T (ATCC: HTB 126), HBL-100 (ATCC: HTB 124), Molt-4 (ATCC: CRL 1582).
as §2

Jurkat = assay: MTS proliferation assay, Jurkat; format: cell-based, human; settings: 72 h incubation, read-out: MTS proliferation assay IC 50 Jurkat
Protocol: as §1, §3, §2

Row | Structure (SMILES) | IC50 (MRC5) | Hoechst 33342 nuclear staining score ([1]; H460, conc 0.01 μm) | Hoechst 33342 nuclear staining score ([1]; H460, conc 0.1 μm) | Hoechst 33342 nuclear staining score ([1]; H460, conc 1 μm) | Hoechst 33342 nuclear staining score ([1]; HeLa, conc 0.01 μm) | Hoechst 33342 nuclear staining score ([1]; HeLa, conc 0.1 μm) | Hoechst 33342 nuclear staining score ([1]; HeLa, conc 1 μm) | Hoechst 33342 nuclear staining score ([1]; Jily, conc 0.01 μm) | Hoechst 33342 nuclear staining score ([1]; Jily, conc 0.1 μm) | Hoechst 33342 nuclear staining score ([1]; Jily, conc 1 μm) | Hoechst 33342 nuclear staining score ([1]; Jurkat, conc 0.01 μm) | Hoechst 33342 nuclear staining score ([1]; Jurkat, conc 0.1 μm) | Hoechst 33342 nuclear staining score ([1]; MRC5, conc 0.01 μm) | Hoechst 33342 nuclear staining score ([1]; MRC5, conc 0.1 μm) | Hoechst 33342 nuclear staining score ([1]; MRC5, conc 1 μm) | Hoechst 33342 nuclear staining score ([1]; PBLs, conc 0.01 μm) | Hoechst 33342 nuclear staining score ([1]; PBLs, conc 0.1 μm) | Hoechst 33342 nuclear staining score ([1]; PBLs, conc 1 μm) | IC50 (HeLa) | IC50 (Jurkat) | further results
1 | CON=C(Cn1c(-c2nonc2N)nc2ccccc21)c1ccc(-c2ccccc2)cc1 (mixture of isomers) [Example 28] | > 1 µM | 0 | 0 | 0 | 0 | 0 | 0 | 0 | 0 | 0 | 0 | 0 | 0 | 0 | 0 | 0 | 0 | 0 | > 1 µM | > 1 µM | Hoechst 33342 nuclear staining score ([1]; Jurkat, conc 1 μm): 0
2 | COc1ccc(C(Cn2c(-c3nonc3N)nc3ccccc32)=NO)cc1 (mixture of isomers) [Example 20] | > 1 µM | 0 | 0 | 0 | 0 | 0 | 0 | – | – | – | 0 | 0 | 0 | 0 | 0 | 0 | 0 | 0 | > 1 µM | 0.1 to 1 µM | Hoechst 33342 nuclear staining score ([1]; Jurkat, conc 1 μm): 0
3 | COc1cccc(C(Cn2c(-c3nonc3N)nc3ccccc32)=NO)c1 (mixture of isomers) [Example 24] | > 1 µM | 0 | 0 | 0 | 0 | 0 | 0 | 0 | 0 | 0 | 0 | 0 | 0 | 0 | 0 | 0 | 0 | 0 | > 1 µM | > 1 µM | Hoechst 33342 nuclear staining score ([1]; Jurkat, conc 1 μm): 0
4 | CON=C(Cn1c(-c2nonc2N)nc2ccccc21)c1cccc(Cl)c1 (mixture of isomers) [Example 37] | 0.1 to 1 µM | 0 | 0 | 0 | 0 | 0 | 0 | 0 | 0 | 2 (score 2 relating to strong activity comprising more than 70% of the cells) | – | – | 0 | 0 | 1 (1 relating to weak activity comprising less than 70% of the cells) | 0 | 0 | 0 | 0.1 to 1 µM | 0.1 to 1 µM | –
